These compounds were tested on IL-1β production in PMA-differentiated THP-1 cells (assay: IL-1β production in PMA-differentiated THP-1 cells stimulated with gramicidin (hTHP-1 assay, 2% fetal bovine serum; Procedures 1-3)). Details: Homo sapiens, THP-1, Table B1; hTHP-1 assay containing 2% fetal bovine serum, gramicidin stimulation, IL-1β readout; read-out: hTHP-1 IC50 (average).
Format: cell-based, human
In short: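 IL-1β released into supernatants was read by HTRF after 2 h gramicidin (5 μM) challenge. Before challenge, compounds (3-fold dilutions, top 100 μM, 0.37% DMSO) were given 1 h on THP-1 cells differentiated with PMA (20 ng/ml, 16-18 h) and held in 2% FBS medium.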

CC(O)(CO)c1cc(F)c(S(N)(=O)=NC(=O)Nc2c3c(c(C#N)c4c2CCC4)CCC3)s1 (stereo not shown) [Compound 411] and CNCc1cc(F)c(S(N)(=O)=NC(=O)Nc2c3c(cc4c2CCC4)CCC3)s1 (stereo not shown) [Compound 412] fall in the same range of IC50: 40 to 200 nM for the first, 40 to 200 nM for the second.

Same assay, conditions: Homo sapiens, THP-1, hTHP-1 assay containing 2% fetal bovine serum, Table B2, class symbols; read-out: IC50

First: C[C@](O)(CO)c1ncc(S(N)(=O)=NC(=O)Nc2c3c(cc4c2CC4)CCC3)s1 (stereo partly shown) [919f^]
Second: CC(C)(O)c1sc(S(N)(=O)=NC(=O)Nc2c3c(cc4c2CCC4)CCC3)nc1CO (stereo not shown) [Compound 893]
The IC50 of the first is lower: 8 to 40 nM for the first, 40 to 200 nM for the second.

NS(=O)(=NC(=O)Nc1c2c(cc3c1CCC3)CCC2)c1ccc([C@@H]2CCCN2)s1 (stereo partly shown) [921f^] and N[S@@](=O)(=NC(=O)Nc1c2c(cc3c1CCC3)CCC2)c1ccc(C2CCN2)cc1 (stereo partly shown) [Compound 802a] fall in the same range of IC50: 200 to 1000 nM for the first, 200 to 1000 nM for the second.

N[S@](=O)(=NC(=O)Nc1c2c(cc3c1CCC3)CCC2)c1ccc([C@H]2CCN2)cc1 [Compound 802b] and N[S@](=O)(=NC(=O)Nc1c2c(cc3c1CCC3)CCC2)c1ccc([C@@H]2CCN2)cc1 [Compound 802c] fall in the same range of IC50: 5000 to 30000 nM for the first, 5000 to 30000 nM for the second.

First: CC(C)(O)c1ccc([S@](N)(=O)=NC(=O)Nc2c3c(cc4c2C(=O)CC4)CCC3)cn1 [Compound 804b]
Second: CC(C)(O)c1cccc(S(N)(=O)=NC(=O)Nc2c3c(cc4c2CCC4)CCC3)n1 (stereo not shown) [Compound 895]
The IC50 of the first is lower: 200 to 1000 nM for the first, 1000 to 5000 nM for the second. The first is the more potent here.

Compared with CC(C)(O)c1ccnc([S@](N)(=O)=NC(=O)Nc2c3c(c(C#N)c4c2CCC4)CCC3)c1 [Compound 818a], CC(C)(O)c1ccnc([S@@](N)(=O)=NC(=O)Nc2c3c(c(C#N)c4c2CCC4)CCC3)c1 [Compound 818b] is lower in IC50: 1000 to 5000 nM for the first, 200 to 1000 nM for the second.

First: C[C@H](N[S@@](=O)(=NC(=O)Nc1c2c(cc3c1CCC3)CCC2)c1cnc(C(C)(C)O)s1)c1ccccc1 [Compound 887a]
Second: CC(C)(O)c1sc(S(N)(=O)=NC(=O)Nc2c3c(cc4c2CCC4)CCC3)cc1-c1ccccc1 (stereo not shown) [Compound 900]
The IC50 of the first is higher: 5000 to 30000 nM for the first, 40 to 200 nM for the second.

Compared with CN(C)Cc1ccc(S(N)(=O)=NC(=O)Nc2c3c(cc4c2CCC4)CCC3)s1 (stereo not shown) [Compound 889], CN(C)Cc1ccc([S@](N)(=O)=NC(=O)Nc2c3c(cc4c2CCC4)CCC3)s1 [Compound 889a] is higher in IC50: 1000 to 5000 nM for the first, 5000 to 30000 nM for the second. The first is the more potent here.

First: CN(C)Cc1ccc([S@@](N)(=O)=NC(=O)Nc2c3c(cc4c2CCC4)CCC3)s1 [Compound 889b]
Second: CN(C)CC(C)(C)c1ccc(S(N)(=O)=NC(=O)Nc2c3c(cc4c2CCC4)CCC3)cc1 (stereo not shown) [Compound 902]
The IC50 of the first is lower: 200 to 1000 nM for the first, 1000 to 5000 nM for the second. The first is the more potent here.

First: CN(Cc1ccc(S(N)(=O)=NC(=O)Nc2c3c(cc4c2CC4)CCC3)c(F)c1)C1CCC1 (stereo not shown) [Compound 891]
Second: CC(NC1CCC1)c1ccc(S(N)(=O)=NC(=O)Nc2c3c(cc4c2CC4)CCC3)c(F)c1 (stereo not shown) [Compound 892]
The IC50 of the first is higher: 1000 to 5000 nM for the first, 200 to 1000 nM for the second.

Compared with NS(=O)(=NC(=O)Nc1c2c(cc3c1CCC3)CCC2)c1sc(CNC2CCC2)cc1F (stereo not shown) [Compound 898], CN1CCC(c2ccc(S(N)(=O)=NC(=O)Nc3c4c(cc5c3CCC5)CCC4)c(F)c2)C1 (stereo not shown) [Compound 899] is higher in IC50: 200 to 1000 nM for the first, 5000 to 30000 nM for the second.

CN(C)CC(C)(C)c1ccc([S@@](N)(=O)=NC(=O)Nc2c3c(cc4c2CCC4)CCC3)cc1 [Compound 902b] and CCn1ccc(S(N)(=O)=NC(=O)Nc2c3c(cc4c2CCC4)CCC3)n1 (stereo not shown) [Compound 904] fall in the same range of IC50: 200 to 1000 nM for the first, 200 to 1000 nM for the second.

First: CC(C)c1cnc(S(N)(=O)=NC(=O)Nc2c3c(cc4c2CCC4)CCC3)c(F)c1 (stereo not shown) [Compound 903]
Second: CC(C)c1cnc([S@@](N)(=O)=NC(=O)Nc2c3c(cc4c2CCC4)CCC3)c(F)c1 [Compound 903a]
The IC50 of the first is higher: 1000 to 5000 nM for the first, 200 to 1000 nM for the second.

First: CC(C)c1cnc([S@](N)(=O)=NC(=O)Nc2c3c(cc4c2CCC4)CCC3)c(F)c1 [Compound 903b]
Second: CCn1ccc([S@](N)(=O)=NC(=O)Nc2c3c(cc4c2CCC4)CCC3)n1 [Compound 904a]
The IC50 of the first is higher: 5000 to 30000 nM for the first, 40 to 200 nM for the second.

Compound CCn1ccc([S@@](N)(=O)=NC(=O)Nc2c3c(cc4c2CCC4)CCC3)n1 [Compound 904b] has an IC50 of 1000 to 5000 nM.

Same assay, conditions: Homo sapiens, THP-1, hTHP-1 assay containing 2% fetal bovine serum, Table B2, given as bound; read-out: IC50

CC(C)(O)c1ccc([S@@](N)(=O)=NC(=O)Nc2c3c(cc4c2C(=O)CC4)CCC3)cn1 [Compound 804a] and CN(C)CC(C)(C)c1ccc([S@](N)(=O)=NC(=O)Nc2c3c(cc4c2CCC4)CCC3)cc1 [Compound 902a] cannot be ordered by IC50: over 30000 nM for the first, over 30000 nM for the second.

Work on C[C@H](N[S@](=O)(=NC(=O)Nc1c2c(cc3c1CCC3)CCC2)c1cnc(C(C)(C)O)s1)c1ccccc1 [Compound 887b] yielded an IC50 of over 30000 nM.

Same assay, conditions: Table B3; hTHP-1 assay containing 2% fetal bovine serum, gramicidin stimulation, IL-1β readout; read-out: hTHP-1 IC50

First: NS(=O)(=NC(=O)Nc1c2c(cc3c1CCC3)CCC2)c1ccc(C2CCN2)cc1 (single isomer, unassigned) [Example 865, (S, S) or (R, S)-4-(azetidin-2-yl)-N′-((1,2,3,5,6,7-hexahydro-s-indacen-4-yl)carbamoyl)benzenesulfonimidamide]
Second: CN[C@H](c1ccc(S(N)(=O)=NC(=O)Nc2c3c(cc4c2CC4)CCC3)s1)C1CC1 (single isomer, unassigned) [Example 866, (S, R) or (R, R)-5-(cyclopropyl(methylamino)methyl)-N′-((2,4,5,6-tetrahydro-1H-cyclobuta[f]inden-3-yl)carbamoyl)thiophene-2-sulfonimidamide]
The IC50 of the first is higher: 5000 to 30000 nM for the first, 8 to 40 nM for the second.

Compared with CN[C@H](c1ccc(S(N)(=O)=NC(=O)Nc2c3c(cc4c2CC4)CCC3)s1)C1CC1 (single isomer, unassigned) [Example 867, (S, S) or (R, S)-5-(cyclopropyl(methylamino)methyl)-N′-((2,4,5,6-tetrahydro-1H-cyclobuta[f]inden-3-yl)carbamoyl)thiophene-2-sulfonimidamide], NS(=O)(=NC(=O)Nc1c2c(cc3c1CC3)CCC2)c1cc2c(s1)CCN[C@@H]2C(F)F (single isomer, unassigned) [Example 874, (R or S,4S)-4-(difluoromethyl)-N′-((2,4,5,6-tetrahydro-1H-cyclobuta[f]inden-3-yl)carbamoyl)-4,5,6,7-tetrahydrothieno[3,2-c]pyridine-2-sulfonimidamide] is lower in IC50: 1000 to 5000 nM for the first, 40 to 200 nM for the second. The second is the more potent here.

First: CN[C@H](c1ccc(S(N)(=O)=NC(=O)Nc2c3c(cc4c2CC4)CCC3)s1)C1CC1 (single isomer, unassigned) [Example 868, (R, R) or (S, R)-5-(cyclopropyl(methylamino)methyl)-N′-((2,4,5,6-tetrahydro-1H-cyclobuta[f]inden-3-yl)carbamoyl)thiophene-2-sulfonimidamide]
Second: NS(=O)(=NC(=O)Nc1c2c(cc3c1CC3)CCC2)c1cc2c(s1)CCN[C@@H]2C(F)F (single isomer, unassigned) [Example 875, (S or R,4S)-4-(difluoromethyl)-N′-((2,4,5,6-tetrahydro-1H-cyclobula[f]inden-3-yl)carbamoyl)-4,5,6,7-tetrahydrothieno[3,2-c]pyridine-2-sulfonimidamide]
The IC50 of the first is lower: 8 to 40 nM for the first, 1000 to 5000 nM for the second. The first is the more potent here.

First: CN[C@H](c1ccc(S(N)(=O)=NC(=O)Nc2c3c(cc4c2CC4)CCC3)s1)C1CC1 (single isomer, unassigned) [Example 869, (R, S) or (S, S)-5-(cyclopropyl(methylamino)methyl)-N′-((2,4,5,6-tetrahydro-1H-cyclobuta[f]inden-3-yl)carbamoyl)thiophene-2-sulfonimidamide]
Second: NS(=O)(=NC(=O)Nc1c2c(cc3c1CC3)CCC2)c1cc2c(s1)CCN[C@H]2C(F)F (single isomer, unassigned) [Example 876, (R or S,4R)-4-(difluoromethyl)-N′-((2,4,5,6-tetrahydro-1H-cyclobuta[f]inden-3-yl)carbamoyl)-4,5,6,7-tetrahydrothieno[3,2-c]pyridine-2-sulfonimidamide]
The IC50 of the first is higher: 200 to 1000 nM for the first, 40 to 200 nM for the second. The second is the more potent here.

First: CNCc1csc(S(N)(=O)=NC(=O)Nc2c3c(cc4c2CC4)CCC3)c1F (single isomer, unassigned) [Example 870, (R) or (S) -3-fluoro-4-((methylamino)methyl)-N′-((2,4,5,6-tetrahydro-1H-cyclobuta[f]inden-3-yl)carbamoyl)thiophene-2-sulfonimidamide]
Second: NS(=O)(=NC(=O)Nc1c2c(cc3c1CC3)CCC2)c1cc2c(s1)CCN[C@H]2C(F)F (single isomer, unassigned) [Example 877, (S or R,4R)-4-(difluoromethyl)-N′-((2,4,5,6-tetrahydro-1H-cyclobuta[f]inden-3-yl)carbamoyl)-4,5,6,7-tetrahydrothieno[3,2-c]pyridine-2-sulfonimidamide]
The IC50 of the first is lower: 40 to 200 nM for the first, 1000 to 5000 nM for the second. The first is the more potent here.

CNCc1csc(S(N)(=O)=NC(=O)Nc2c3c(cc4c2CC4)CCC3)c1F (single isomer, unassigned) [Example 871, (S) or (R) -3-fluoro-4-((methylamino)methyl)-N′-((2,4,5,6-tetrahydro-1H-cyclobuta[f]inden-3-yl)carbamoyl)thiophene-2-sulfonimidamide] and NS(=O)(=NC(=O)Nc1c2c(cc3c1CC3)CCC2)c1cc2c(s1)CCN(CC(F)F)C2 (single isomer, unassigned) [Example 872, (R) or (S) -5-(2,2-difluoroethyl)-N′-((2,4,5,6-tetrahydro-1H-cyclobuta[f]inden-3-yl)carbamoyl)-4,5,6,7-tetrahydrothieno[3,2-c]pyridine-2-sulfonimidamide] fall in the same range of IC50: 1000 to 5000 nM for the first, 1000 to 5000 nM for the second.

Compared with NS(=O)(=NC(=O)Nc1c2c(cc3c1CC3)CCC2)c1cc2c(s1)CCN(CC(F)F)C2 (single isomer, unassigned) [Example 873, (S) or (R) -5-(2,2-difluoroethyl)-N′-((2,4,5,6-tetrahydro-1H-cyclobuta[f]inden-3-yl)carbamoyl)-4,5,6,7-tetrahydrothieno[3,2-c]pyridine-2-sulfonimidamide], CC(O)(CO)c1nc(CO)c(S(N)(=O)=NC(=O)Nc2c3c(cc4c2CCC4)CCC3)s1 (stereo in doubt) [Example 755, 2-((S)-1,2-dihydroxypropan-2-yl)-N′-((1,2,3,5,6,7-hexahydro-s-indacen-4-yl)carbamoyl)-4-(hydroxymethyl)thiazole-5-sulfonimidamide] is lower in IC50: over 30000 nM for the first, 200 to 1000 nM for the second. The second is the more potent here.
